Experimental data as given in publication PMC4453016, “Novel Bifunctional Cyclic Chelator for ^89Zr Labeling–Radiolabeling and Targeting Properties of RGD Conjugates” (Molecular Pharmaceutics, 2015).
Several values for one entry are separate records, joined by “and”; a condition that tells them apart may be missing. Equal values may be shown once.

Key:
[1] = Transchelation study with 1000-fold molar excess of TAFC or DFO (RP-HPLC); type: physicochemical; conditions: competitor DFO 1000-fold excess, RT, n = 3
Protocol: [^89Zr]DFO and [^89Zr]TAFC (50 μL each) were mixed with a 1000-fold molar excess of either TAFC or DFO for 7 days at RT. At selected time points aliquots of the solutions were analyzed directly via RP-HPLC. ([^89Zr]DFO tR = 4.8 min; [^89Zr]TAFC tR = 5.9 min). The transchelation was determined by the ratio of [^89Zr]DFO and [^89Zr]TAFC. Three replicates were analyzed for each radioligand.

[2] = Distribution coefficient (logD), octanol/PBS; conditions: pH 7.4
[3] = Stability assay in PBS and human serum; type: physicochemical; conditions: period of 7 days, 37 °C; no demetalation was observed
Protocol: (§1) Determination of the stability of [^89Zr]DFO, [^89Zr]TAFC, and [^89Zr]FSC-RGD conjugates was carried out by incubating the radioligands in PBS, 1000-fold molar excess of EDTA solution with different pH (pH 7 and pH 6; radioligand vs EDTA: 25 μM vs 25 mM) as well as in human serum for 7 days at 37 °C, respectively. At selected time points three aliquots of PBS and EDTA solution were analyzed directly via ITLC, while the three serum aliquots were mixed with 500 μL of CH3CN, vortexed, and centrifuged at 20,000 rcf for 2 min prior to analysis.

[4] = Biodistribution of [^89Zr]TAFC in healthy mice; type: in vivo, BALB/c mice; conditions: normal mice, i.v., 6 h p.i., n = 4
Protocol: For the evaluation of biodistribution, four healthy female BALB/c mice (Charles River Laboratories, Sulzfeld, GER) were intravenously injected with [^89Zr]TAFC (∼1.5 MBq/mouse, ∼4 μg of precursor) into the tail vein and sacrificed at 6 h postinjection (p.i.). For the evaluation of tumor uptake of [^89Zr]FSC(succ-RGD)3 female, athymic BALB/c nude mice (Charles River Laboratories) were used. For the induction of tumor xenografts mice were injected subcutaneously with 5 × 10^6 αvβ3 integrin positive M21 cells into the right hind limb and with 5 × 10^6 αvβ3 integrin negative M21-L cells (negative control) into the left hind limb of the same mouse (n = 4). The tumors were allowed to grow until they had reached a volume of 0.3 to 0.6 cm^3. On the day of the experiment [^89Zr]FSC(succ-RGD)3 (∼0.5 MBq/mouse, ∼0.5 μg of peptide) was intravenously injected in the lateral tail vein. Mice were sacrificed by cervical dislocation at 1, 2, and 4 h after injection. Organs (spleen, pancreas, stomach, intestine, kidney, liver, heart, and lung), blood, muscle tissue, bone, and tumors were dissected and weighted. As a comparison, four tumor-bearing mice were intravenously injected in the tail vein with [^68Ga]FSC(succ-RGD)3 (∼0.5 MBq/mouse, ∼0.5 μg of precursor) and sacrificed at 1 h p.i. Activity of the different samples was measured in the gamma counter. Results were expressed as percentage of injected dose per gram tissue (% ID/g).

[5] = Protein binding assay in fresh human serum (size exclusion spin column); conditions: 37 °C, incubation time 168 h
[6] = Stability assay in 1000-fold molar excess of EDTA solution (ITLC); type: physicochemical; conditions: for % intact starting species by incubation time: competitor EDTA 1000-fold excess, 37 °C, n = 3
Protocol: as §1

For `CC(=O)NC1CCCN(O)C(=O)/C=C(/C)CCOC(=O)C(NC(C)=O)CCCN(O)C(=O)/C=C(/C)CCOC(=O)C(NC(C)=O)CCCN(O)C(=O)/C=C(/C)CCOC1=O` (centres unmarked) [[^89Zr]TAFC, triacetylfusarinine C, metal not drawn], the “% intact starting species by incubation time” value (“% intact starting species” for short) ([1]; pH 6, 1 h) was 96.7 ± 0.2%, the “% intact starting species” value ([1]; pH 6, 4 h) was 91.9 ± 0.3% and the “% intact starting species” value ([1]; pH 6, 1 d) was 74.2 ± 3.0%. The “% intact starting species” value ([1]; pH 6, 3 d) was 53.0 ± 4.1%, the “% intact starting species” value ([1]; pH 6, 5 d) was 43.3 ± 3.5% and the “% intact starting species” value ([1]; pH 6, 7 d) was 40% and 39.8 ± 2.0%. For the same compound, the logD [2] was -2, the “stability in PBS and human serum” value [3] was “high stability” and the blood activity [4] was 0.05 ± 0.01 % ID/g. The “renal retention (kidney)” value [4] was 0.86 ± 0.48 % ID/g, the uptake of bone [4] was 0.04 ± 0.02 % ID/g and the “protein binding (%)” value [5] was 6.8 ± 0.5%. For the same compound, the “transchelation in EDTA solution” value ([6]; 1000-fold molar excess of EDTA, pH 7, after 7 days, ITLC) was “no transchelation”, the “transchelation in an EDTA challenging experiment” value ([6]; after 7 days) was 3–5% and the “% intact starting species” value ([6]; pH 6, 1 h) was 99.0 ± 0.1%. The “% intact starting species” value ([6]; pH 6, 4 h) was 98.1 ± 0.2%, the “% intact starting species” value ([6]; pH 6, 1 d) was 96.0 ± 0.6% and the “% intact starting species” value ([6]; pH 6, 3 d) was 94.7 ± 0.3%. For the same compound, the “% intact starting species” value ([6]; pH 6, 5 d) was 95.9 ± 0.3%, the “% intact starting species” value ([6]; pH 6, 7 d) was 94.4 ± 0.5% and the “% intact starting species” value ([6]; pH 7, 1 h) was 99.6 ± 0.1%. The “% intact starting species” value ([6]; pH 7, 4 h) was 99.6 ± 0.1%, the “% intact starting species” value ([6]; pH 7, 1 d) was 99.3 ± 0.2% and the “% intact starting species” value ([6]; pH 7, 3 d) was 96.9 ± 0.3%. For the same compound, the “% intact starting species” value ([6]; pH 7, 5 d) was 98.3 ± 0.1% and the “% intact starting species” value ([6]; pH 7, 7 d) was 97.2 ± 0.2%.
